Measured values from ChEMBL document CHEMBL1817587, “DNA site-specific N3-adenine methylation targeted to estrogen receptor-positive cells” (Bioorg Med Chem, 2011).
Values belong to the compound of their own block, whether it stands above or below them. Calls of active or inactive are those of the source. No cut-off for these calls is given here.

What was measured:
[1] = tested on: MCF7; assay: Cytotoxicity against human MCF7 cells at 500 uM after 16 hrs by MTT assay; format: functional, cell-based
[2] = target: T1, Estrogen receptor (Homo sapiens, UniProt P03372); assay: (§1) Binding affinity to estrogen receptor-alpha after 2 hrs by TR-FRET assay
T1 sequence (P03372 whole entry): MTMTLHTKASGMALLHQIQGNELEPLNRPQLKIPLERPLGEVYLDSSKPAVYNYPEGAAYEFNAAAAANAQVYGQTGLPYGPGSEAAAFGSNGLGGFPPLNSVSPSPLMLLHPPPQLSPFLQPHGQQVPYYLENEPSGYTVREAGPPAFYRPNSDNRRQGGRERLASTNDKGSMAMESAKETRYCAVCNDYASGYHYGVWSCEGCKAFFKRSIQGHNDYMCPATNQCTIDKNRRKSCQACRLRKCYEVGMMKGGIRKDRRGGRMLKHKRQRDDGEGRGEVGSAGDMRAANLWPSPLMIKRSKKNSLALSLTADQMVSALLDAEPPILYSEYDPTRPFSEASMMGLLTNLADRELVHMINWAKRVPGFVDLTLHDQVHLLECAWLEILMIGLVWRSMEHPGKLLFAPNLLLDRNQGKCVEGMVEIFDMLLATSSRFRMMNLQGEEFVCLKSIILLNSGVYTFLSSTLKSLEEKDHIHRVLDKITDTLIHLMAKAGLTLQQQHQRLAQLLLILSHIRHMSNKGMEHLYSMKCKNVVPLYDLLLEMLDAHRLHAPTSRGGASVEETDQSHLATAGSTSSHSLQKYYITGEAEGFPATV

[3] = target: T2, Estrogen receptor (Homo sapiens) (UniProt P03372); assay: as §1
T2 sequence (whole entry): T1 sequence (P03372 whole entry)

[4] = tested on: Nucleic Acid; assay: Induction of DNA methylation at calf thymus DNA assessed as 7-MeG adduct level per mol of DNA at 100 uM after 24 hrs by reverse phase HPLC; format: nucleic-acid assay; conditions: Bos taurus
[5] = tested on: Nucleic Acid; assay: Induction of DNA methylation at calf thymus DNA assessed as 3-MeA adduct level per mol of DNA after 24 hrs by reverse phase HPLC; format: nucleic-acid assay; conditions: Bos taurus
[6] = tested on: Nucleic Acid; assay: Induction of DNA methylation at calf thymus DNA assessed as 3-MeA level at 500 uM after 24 hrs by reverse phase HPLC relative to methylmethane sufonate; format: nucleic-acid assay; conditions: Bos taurus
[7] = tested on: Nucleic Acid; assay: Induction of DNA methylation at calf thymus DNA assessed as 7-MeG adduct level per mol of DNA after 24 hrs by reverse phase HPLC; format: nucleic-acid assay; conditions: Bos taurus
[8] = tested on: Nucleic Acid; assay: Induction of DNA methylation at calf thymus DNA assessed as 7-MeG level at 500 uM after 24 hrs by reverse phase HPLC relative to methylmethane sufonate; format: nucleic-acid assay; conditions: Bos taurus
[9] = tested on: Nucleic Acid; assay: Induction of DNA methylation at calf thymus DNA assessed as total adduct level at 500 uM after 24 hrs by reverse phase HPLC relative to methylmethane sufonate; format: nucleic-acid assay; conditions: Bos taurus
[10] = tested on: MCF7; assay: Cytotoxicity against human MCF7 cells after 16 hrs by MTT assay; format: functional, cell-based; conditions: MCF7, 16 h
[11] = tested on: Nucleic Acid; assay: Induction of DNA methylation at calf thymus DNA assessed as 7-MeG adduct level per mol of DNA at 100 uM after 24 hrs by reverse phase HPLC in presence of 100 uM netropsin; format: nucleic-acid assay; conditions: Bos taurus
[12] = tested on: Nucleic Acid; assay: Induction of DNA methylation at calf thymus DNA assessed as 3-MeA adduct level per mol of DNA at 100 uM after 24 hrs by reverse phase HPLC in presence of 100 uM netropsin; format: nucleic-acid assay; conditions: Bos taurus
[13] = tested on: MCF7; assay: Cytotoxicity against human MCF7 cells at 250 uM after 16 hrs by MTT assay pretreated with 250 uM fulvestrant; format: functional, cell-based
[14] = tested on: Nucleic Acid; assay: Induction of DNA methylation at calf thymus DNA assessed as 3-MeA adduct level per mol of DNA at 50 uM after 24 hrs by reverse phase HPLC in presence of 100 uM netropsin; format: nucleic-acid assay; conditions: Bos taurus
[15] = tested on: Nucleic Acid; assay: Induction of DNA methylation at calf thymus DNA assessed as 7-MeG adduct level per mol of DNA at 50 uM after 24 hrs by reverse phase HPLC in presence of 100 uM netropsin; format: nucleic-acid assay; conditions: Bos taurus
[16] = tested on: Nucleic Acid; assay: Induction of DNA methylation at calf thymus DNA assessed as 7-MeG adduct level per mol of DNA at 50 uM after 24 hrs by reverse phase HPLC; format: nucleic-acid assay; conditions: Bos taurus
[17] = tested on: MCF7; assay: Ratio of EC50 for human MCF7 cells pretreated with 100 uM netropsin to compound EC50 for human MCF7 cells; format: functional
[18] = tested on: MCF7; assay: Cytotoxicity against human MCF7 cells after 16 hrs by MTT assay pretreated with 100 uM netropsin; format: functional, cell-based
[19] = tested on: MCF7; assay: Ratio of Me-lex EC50 to compound EC50 for human MCF7 cells after 16 hrs by MTT assay; format: functional
[20] = tested on: Nucleic Acid; assay: Induction of DNA methylation at calf thymus DNA assessed as 3-MeA adduct level per mol of DNA at 50 uM after 24 hrs by reverse phase HPLC; format: nucleic-acid assay; conditions: Bos taurus
[21] = tested on: MCF7; assay: Ratio of methylmethane sufonate EC50 to compound EC50 for human MCF7 cells after 16 hrs by MTT assay; format: functional
[22] = tested on: Nucleic Acid; assay: Induction of DNA methylation at calf thymus DNA assessed as 3-MeA adduct level per mol of DNA at 5000 uM after 24 hrs by reverse phase HPLC; format: nucleic-acid assay; conditions: Bos taurus
[23] = tested on: Nucleic Acid; assay: Induction of DNA methylation at calf thymus DNA assessed as 3-MeA adduct level per mol of DNA at 5000 uM after 24 hrs by reverse phase HPLC in presence of 100 uM netropsin; format: nucleic-acid assay; conditions: Bos taurus

IC50 [2]: 0.00111 µM
RBA [3]: 51%
SMILES: Cn1cc(NC(=O)c2cc(NC(=O)CCS(C)(=O)=O)cn2C)cc1C(=O)NCCCC(=O)NCCCCCC[C@@H]1Cc2cc(O)ccc2[C@H]2CC[C@]3(C)[C@@H](O)CC[C@H]3[C@H]12
Activity [1]: inactive

SMILES: CCCNC(=O)CCCNC(=O)c1cc(NC(=O)c2cc(NC(=O)CCS(=O)(=O)OC)cn2C)cn1C
Activity [4]: 496 µmol
Activity [5]: 96%
fold change (FC) [6]: 391
Activity [7]: 90%
fold change (FC) [8]: 1.4
fold change (FC) [9]: 37
EC50 [10]: 214 µM
Activity [11]: 614 µmol
Activity [12]: 657 µmol

SMILES: COS(=O)(=O)CCC(=O)Nc1cc(C(=O)Nc2cc(C(=O)NCCCC(=O)NCCCCCC[C@@H]3Cc4cc(O)ccc4[C@H]4CC[C@]5(C)[C@@H](O)CC[C@H]5[C@H]34)n(C)c2)n(C)c1
Activity [13]: inactive
Activity [14]: 167 µmol
Activity [15]: 279 µmol
Activity [5]: 86%
Activity [16]: 280 µmol
Ratio EC50 [17]: 3
EC50 [18]: 479 µM
Ratio EC50 [19]: 1.5
Activity [20]: 1760 µmol
fold change (FC) [6]: 98
Activity [7]: 14%
fold change (FC) [8]: 1.5
fold change (FC) [9]: 11
Ratio EC50 [21]: 20
EC50 [10]: 135 µM

SMILES: COS(C)(=O)=O [METHANESULFONIC ACID METHYL ESTER]
Activity [22]: 1800 µmol
Activity [5]: 9%
EC50 [10]: 2750 µM
Activity [23]: 1240 µmol
